According to ChEMBL document CHEMBL1146580, “Acinospesigenin-A, -B, and -C: three new triterpenoids from Phytolacca acinosa” (2003):

System: Rattus norvegicus
Assay: Antiedemic activity against […]-induced paw edema in sc dosed Albino rat
Type: functional

SMILES	ED50
COC(=O)[C@@]1(C)CC[C@]2(C(=O)O)CC[C@]3(C)C(=CC[C@@H]4[C@@]5(C)C[C@H](O)[C@H](O)[C@@](C)(C=O)[C@@H]5CC[C@]43C)[C@H]2C1	10 mg/kg
COC(=O)[C@@]1(C)CC[C@]2(C(=O)O)CC[C@]3(C)C(=C[C@@H](O)[C@@H]4[C@@]5(C)C[C@H](O)[C@H](O)[C@@](C)(C=O)[C@@H]5CC[C@]43C)[C@H]2C1	10 mg/kg
C[C@]12C=CC(=O)C=C1CC[C@@H]1[C@@H]2[C@@H](O)C[C@@]2(C)[C@H]1CC[C@]2(O)C(=O)CO [PREDNISOLONE]	60 mg/kg
C[C@]12CCC(=O)C=C1CC[C@@H]1[C@@H]2C(=O)C[C@@]2(C)[C@H]1CC[C@]2(O)C(=O)CO [CORTISONE]	30 mg/kg
